Results taken from ChEMBL document CHEMBL1158252, “Antimalarial activity: the search for marine-derived natural products with selective antimalarial activity” (J Nat Prod, 1996).
In brackets after ≈: the same amount, converted by molar mass.

How the values were obtained:
KB = assay: cells; assay type: ADME, cell-based; settings: Homo sapiens
Description: Cytotoxicity against human KB cells

[1] = Selectivity index, ratio of IC50 for human KB cells to IC50 for Plasmodium falciparum D6; assay type: toxicity, cell-based; settings: read-out: Ratio IC50
[2] = Selectivity index, ratio of IC50 for human KB cells to IC50 for Plasmodium falciparum W2; assay type: toxicity, cell-based; settings: read-out: Ratio IC50
Plasmodium falciparum [3] = assay: microbe, parasite or virus in culture; assay type: functional, organism-based; settings: W2
Description: Antiplasmodial activity against Plasmodium falciparum W2

Plasmodium falciparum [4] = assay: microbe, parasite or virus in culture; assay type: functional, organism-based; settings: D6
Description: Antiplasmodial activity against Plasmodium falciparum D6

Row | IC50 (KB) | IC50 (Plasmodium falciparum [3]) | IC50 (Plasmodium falciparum [4]) | SMILES | selectivity ratio [1] | selectivity ratio [2]
1 | 5.3 µg/mL (≈ 15.3 µM) | 0.423 µg/mL (≈ 1.22 µM) | 0.797 µg/mL (≈ 2.31 µM) | C=C1CC[C@H]2[C@H]3[C@H](CC[C@]2(C)N=C=S)[C@@H](C)C[C@H](C=C(C)C)[C@]13O | 6.6 | 12
2 |  |  |  | OC(c1cc(C(F)(F)F)nc2c(C(F)(F)F)cccc12)C1CCCCN1 (stereo not drawn) [MEFLOQUINE] | 490 | 970
3 | > 20 µg/mL | > 10 µg/mL | > 10 µg/mL | CC(C)=CCC[C@@H](C)[C@H]1CC[C@](C)(N=C=S)[C@H]2CCC(C)=C[C@H]12 |  | 
4 | > 20 µg/mL | > 10 µg/mL | > 10 µg/mL | C=C(C)C1CC[C@@H]2[C@H]3CCC(C)[C@H]3[C@H]12 (stereo partly drawn) |  | 
5 | 1.6 µg/mL (≈ 4.49 µM) | 0.0285 µg/mL (≈ 0.0799 µM) | 0.0451 µg/mL (≈ 0.126 µM) | C[C@@H]1C[C@@H]2C[C@H](C)[C@H]3CC[C@](C)(N=C=S)[C@H]4CC[C@@H]([C@@H]2[C@H]34)[C@]1(C)C#N | 35 | 56
6 | > 20 µg/mL | 0.133 µg/mL (≈ 0.447 µM) | 0.302 µg/mL (≈ 1.02 µM) | CC(C)=C[C@@H]1C[C@H](C)[C@H]2CC[C@](C)(C#N)[C@H]3CC=C(C)[C@@H]1[C@H]23 | > 66.2 | > 150
7 | 15.2 µg/mL (≈ 51.1 µM) | 0.0256 µg/mL (≈ 0.0861 µM) | 0.0585 µg/mL (≈ 0.197 µM) | CC(C)=C[C@H]1C[C@H](C)[C@H]2CC[C@](C)(C#N)[C@H]3CCC(C)=C1[C@H]23 | 260 | 590
8 | > 20 µg/mL | 0.0284 µg/mL (≈ 0.0955 µM) | 0.0849 µg/mL (≈ 0.285 µM) | C[C@H]1C[C@H]2CC(C)(C)CC3=CC[C@H]4[C@@H]([C@@H]1CC[C@]4(C)C#N)[C@@H]32 | > 240 | > 700
9 | > 20 µg/mL | 0.242 µg/mL (≈ 0.813 µM) | 0.52 µg/mL (≈ 1.75 µM) | C=C(C)C[C@@H]1C[C@H](C)[C@H]2CC[C@](C)(C#N)[C@H]3CCC(=C)[C@@H]1[C@H]23 | > 38.5 | > 82.6
10 | 14.5 µg/mL (≈ 48.7 µM) | 0.0238 µg/mL (≈ 0.08 µM) | 0.0741 µg/mL (≈ 0.249 µM) | C[C@H]1C[C@H]2CC(C)(C)C=C3CC[C@H]4[C@@H]([C@@H]1CC[C@]4(C)C#N)[C@@H]32 | 200 | 610
11 | 2 µg/mL (≈ 5.87 µM) | 0.0561 µg/mL (≈ 0.165 µM) | 0.0749 µg/mL (≈ 0.22 µM) | C[C@@H]1C[C@@H]2C[C@H](C)[C@H]3CC[C@](C)(N=C=O)[C@H]4CC[C@@H]([C@@H]2[C@H]34)[C@]1(C)C#N | 27 | 36
12 | > 20 µg/mL | 0.109 µg/mL (≈ 0.306 µM) | 0.47 µg/mL (≈ 1.32 µM) | C=C1CC[C@H]2[C@H]3[C@H](CC[C@]2(C)C#N)[C@@H](C)C[C@@H](CC(C)(C)N=C=S)[C@H]13 | > 42.6 | > 183
13 | > 20 µg/mL | 8.46 µg/mL (≈ 41.4 µM) | > 10 µg/mL | C=C(C)[C@@H]1C=C2C(C)CC[C@@H]2C(C)CC1 (stereo partly drawn) |  | > 2.3
14 | 19.1 µg/mL (≈ 64.2 µM) | 0.0297 µg/mL (≈ 0.0998 µM) | 0.09 µg/mL (≈ 0.303 µM) | C=C(C)/C=C/[C@]12C[C@H](C)[C@H]3CC[C@](C)(C#N)[C@@H](CC[C@H]1C)[C@@H]32 | 210 | 640
15 | 18.2 µg/mL (≈ 61.2 µM) | 0.0195 µg/mL (≈ 0.0655 µM) | 0.0625 µg/mL (≈ 0.21 µM) | CC1=C[C@@H]2C[C@H](C)[C@H]3CC[C@](C)(C#N)[C@H]4CC[C@@H]([C@@H]2[C@H]34)[C@@H]1C | 290 | 930
16 | > 20 µg/mL | > 10 µg/mL | > 10 µg/mL | C=C(C)C1[C@@H]2C(C)CC[C@@H]2[C@@]2(C)CC[C@@H]12 (stereo partly drawn) |  | 

Row | SMILES | IC50 (KB) | IC50 (Plasmodium falciparum [3]) | IC50 (Plasmodium falciparum [4]) | selectivity ratio [1] | selectivity ratio [2]
17 | C=C1CC[C@H]2[C@H]3[C@H](CC[C@]2(C)C#N)[C@@H](C)C[C@H](C=C(C)C)[C@H]13 | 3.2 µg/mL (≈ 10.8 µM) | 0.0093 µg/mL (≈ 0.0313 µM) | 0.0141 µg/mL (≈ 0.0474 µM) | 230 | 340
18 | [C-]#[N+][C@]1(C)[C@H](C)C[C@@H]2C[C@H](C)[C@H]3CC[C@](C)([N+]#[C-])[C@H]4CC[C@H]1[C@@H]2[C@H]34 [DIISOCYANOADOCIANE] | 4.7 µg/mL (≈ 14.5 µM) | 0.0043 µg/mL (≈ 0.0133 µM) |  | 1000 | 1100
19 | O=Cc1ccc(O)cc1 [4-HYDROXYBENZALDEHYDE] | > 20 µg/mL | 5.56 µg/mL (≈ 45.5 µM) | 7.33 µg/mL (≈ 60 µM) | > 2.7 | > 3.6
20 | C=C[C@H]1CN2CC[C@H]1C[C@H]2[C@H](O)c1ccnc2ccc(OC)cc12 [QUININE] | > 20 µg/mL | 0.0546 µg/mL (≈ 0.168 µM) |  | > 1800 | > 370
21 | C[C@@H]1CC[C@H]2[C@@H](C)C(=O)O[C@@H]3O[C@@]4(C)CC[C@@H]1[C@]32OO4 [ARTEMISININ] | > 20 µg/mL | 0.0021 µg/mL (≈ 0.00744 µM) |  |  | 
22 | COc1ccc(CO)cc1 | > 20 µg/mL | > 10 µg/mL | > 10 µg/mL |  | 
23 | C[C@@H]1C[C@@H]2C[C@H](C)[C@H]3CC[C@](C)(C#N)[C@H]4CC[C@@H]([C@@H]2[C@H]34)[C@]1(C)N=C=O | 4.3 µg/mL (≈ 12.6 µM) | 0.0025 µg/mL (≈ 0.00734 µM) | 0.0032 µg/mL (≈ 0.0094 µM) | 1340 | 1710
